From the NIST ThermoML archive (doi:10.1021/je7005924)

Conditions: Liquid

CC(=O)C(C)=O [2,3-butanedione]
Conditions | vapor or sublimation pressure [kPa]
314.3 K | 19.06
320.55 K | 24.04
325.62 K | 29.03
329.85 K | 33.91
333.64 K | 39
336.76 K | 43.59
339.99 K | 48.97
342.8 K | 53.85
345.41 K | 58.83
347.62 K | 63.83
349.9 K | 68.81
351.89 K | 73.79

CC(C)=O [acetone]
Conditions | vapor or sublimation pressure [kPa]
297.67 K | 30.23
301.25 K | 35.22
307.33 K | 45.21
310.08 K | 50.4
312.52 K | 55.29
314.76 K | 60.29
316.8 K | 65.08
318.77 K | 70.07

CCC(=O)C(C)=O [2,3-pentanedione]
Conditions | vapor or sublimation pressure [kPa]
331.84 K | 15.37
338.38 K | 20.36
343.73 K | 25.35
348.13 K | 30.35
352.15 K | 35.34
355.74 K | 40.33
358.85 K | 45.32
361.89 K | 50.21
364.69 K | 55.21
367.09 K | 60.2
369.44 K | 65.19
371.61 K | 70.18
373.8 K | 75.27
